In ChEMBL document CHEMBL5727535, “NK-3 receptor selective antagonist compounds, pharmaceutical composition and methods for use in NK-3 receptors mediated disorders” (2020) one finds Ki data, which are given here for 18 molecules.

SMILES strings stand for the structures.

For the assay, the target named is T1, Neuromedin-K receptor (Homo sapiens, UniProt P29371).
T1 sequence (P29371 whole entry): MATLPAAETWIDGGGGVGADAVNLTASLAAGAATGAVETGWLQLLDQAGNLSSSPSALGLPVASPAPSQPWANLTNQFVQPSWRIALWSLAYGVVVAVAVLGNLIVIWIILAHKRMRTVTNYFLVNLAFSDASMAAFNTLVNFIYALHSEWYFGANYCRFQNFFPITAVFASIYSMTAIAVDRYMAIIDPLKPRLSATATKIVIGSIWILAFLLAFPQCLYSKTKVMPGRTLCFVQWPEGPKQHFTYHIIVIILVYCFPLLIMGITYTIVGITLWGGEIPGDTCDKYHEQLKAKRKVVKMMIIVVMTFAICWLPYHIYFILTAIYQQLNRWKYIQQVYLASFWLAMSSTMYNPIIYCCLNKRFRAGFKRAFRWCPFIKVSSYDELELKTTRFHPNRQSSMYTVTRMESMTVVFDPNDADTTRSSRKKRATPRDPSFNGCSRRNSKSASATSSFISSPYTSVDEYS
The assay can be described thus: 3H-SB222200 Binding Competition Assay with Human NK-3 Receptor: The ability of the compounds of the invention to inhibit the binding of the NK-3 receptor selective antagonist SB222200 was assessed by an in vitro radioligand binding assay. Membranes were prepared from Chinese hamster ovary recombinant cells which express the human NK3 receptor. The membranes were incubated with 5 nM 3H-SB222200_(ARC) in a HEPES 25 mM/NaCl 0.1M/CaCl2 1 mM/MgCl2 5 Mm/BSA 0.5%/Saponin 10 μg/ml buffer at pH 7.4 and various concentrations of the compounds of the invention. The amount of tritiated SB222200 bound to the receptor was determined after filtration by the quantification of membrane associated radioactivity using the TopCount-NXT reader (Packard). Competition curves were obtained for compounds of the invention and the concentrations of compounds which displaced 50% of bound radioligand (IC50) were determined and then apparent inhibition constant Ki values were calculated by the following equation: Ki=IC50/(1+[L]/KD) where [L] is the concentration of free radioligand and KD is its dissociation constant at the receptor, derived from saturation binding experiments (Cheng and Prusoff, 1973).
For the molecule `O=C(c1ccc(F)cc1)N1CCn2c(nnc2-c2csc(-c3ccc(Cl)cc3Cl)n2)C1`, the Ki is under 500 nM.
Turning to `O=C(c1ccc(-c2cccs2)cc1)N1CCn2c(nnc2-c2csc(-c3ccccc3Cl)n2)C1`, the Ki is under 500 nM.
On to `CC1c2nnc(-c3csc(-c4ccc(F)cc4)n3)n2CCN1C(=O)c1ccc(F)c(Cl)c1` (stereo not drawn), for which the Ki was under 500 nM.
The same measure for `CC1c2nnc(-c3csc(-c4ccc(F)cc4)n3)n2CCN1C(=O)c1ccc(Cl)c(F)c1` (stereo not drawn): under 500 nM.
The same measure for `O=C(c1ccc(F)cc1)N1CCn2c(nnc2-c2csc(-c3ccccc3Cl)n2)C1`: under 500 nM; for `O=C(c1ccc(-c2cccs2)cc1)N1CCn2c(nnc2-c2csc(-c3ccc(Br)cc3)n2)C1`: under 500 nM.
Turning to `O=C(c1ccc(F)cc1)N1CCn2c(nnc2-c2csc(-c3cc(Cl)cc(Cl)c3)n2)C1`, the Ki is under 500 nM.
Regarding `C[C@@H]1c2nnc(-c3csc(-c4ccc(Cl)cc4)n3)n2CCN1C(=O)c1ccc(F)cc1`, the Ki was under 500 nM.
Consider `CC1c2nnc(-c3csc(-c4ccc(F)cc4)n3)n2CCN1C(=O)c1ccc(Cl)c(Cl)c1` (stereo not drawn), for which the Ki is under 500 nM.
Regarding `O=C(c1ccc(F)cc1)N1CCn2c(nnc2-c2ccc(Cl)cn2)C1`, the Ki was under 500 nM.
Take `O=C(c1ccc(F)cc1)N1CCn2c(nnc2-c2csc(-c3ccc(Cl)cc3)n2)C1`: the Ki was under 500 nM.
The figure for `O=C(c1ccc(-c2ccccc2)cc1)N1CCn2c(nnc2-c2csc(-c3ccccc3Cl)n2)C1` is under 500 nM; for `O=C(c1ccc(F)cc1)N1CCn2c(nnc2-c2csc(-c3cccc(Cl)c3)n2)C1` it is under 500 nM; for `CC1c2nnc(-c3csc(-c4ccccc4Cl)n3)n2CCN1C(=O)c1ccc(F)cc1` (stereo not drawn) it is under 500 nM.
Consider `O=C(c1ccc(F)cc1)N1CCn2c(nnc2-c2csc(-c3ccc(Br)cc3)n2)C1`, for which the Ki was under 500 nM.
As to `Cn1nc(C(=O)N2CCn3c(nnc3-c3ccccn3)C2)cc1-c1ccc(Cl)cc1`, the Ki is over 5000 nM.
For `O=C(c1ccc(F)cc1)N1CCn2c(nnc2-c2csc(-c3cccc(Cl)c3Cl)n2)C1`, the Ki was under 500 nM.
For `O=C(c1ccc(-c2cccs2)cc1)N1CCn2c(nnc2-c2csc(Cc3ccc(Cl)cc3)n2)C1`, the Ki was under 500 nM.
